Results as given in paper PMC12439480, “Dimeric CCK2R radiotheranostic tracers synergize with mTOR inhibition for enhanced tumor therapy” (Theranostics, 2025).
Read-outs that look alike come from different tables or passages of the source. Numbered stars: 1 amine (or outer) side, 2 acyl side, 3 side chain; on linkers, the order of the positions; unused ones are H or OH. Square brackets hold non-standard residues; d marks the D form. Side chains are listed from the residue outwards. Peptide text beside a SMILES is read from it. * marks the point of attachment. DOTA = O=C(O)CN1CCN(CC(=O)O)CCN(CC(=O)*)CCN(CC(=O)O)CC1; d(γGlu) = O=C(O)[C@@H](CCC(=O)[*:2])N[*:1]; 1Nal = N[C@@H](Cc1cccc2ccccc12)C(=O)O; NMeNle = CCCC[C@H](NC)C(=O)O; PEG4 = NCCOCCOCCOCCOCCC(=O)O

Experiment: Ex vivo biodistribution of 177Lu-labeled compound
Set-up: species or system BALB/c nude mice
Details: mouse, in vivo; for tissue to tissue ratio at 24 h / tissue to tissue ratio at 48 h / tissue to tissue ratio at 72 h / tissue to tissue ratio at 96 h / tissue to tissue ratio at 1 h / tissue to tissue ratio at 4 h: female, BALB/c nude, iv, total radioactivity
Protocol: To evaluate the biodistribution of [^177Lu]Lu-DOTA-CCK2R-dimer, AR42J tumor-bearing mice received intravenous (i.v.) injections of 3.7 MBq (≈ 120 pmol) of [^177Lu]Lu-DOTA-CCK2R-dimer (dissolved in 200 μL of saline; n = 3/group), and Mice were sacrificed at 1, 4, 24, 48, 72, and 96 h post-injection. The tissues of interest were excised, weighed, and analyzed for radioactivity using a γ-counter.
All animal studies were approved by the Ethics Committee of Fudan University Shanghai Cancer Center (No. FUSCC-IACUC- S2023- 0003). Five-week-old female BALB/c nude mice were purchased from Shanghai SLAC Laboratory Animal
Company. To establish cell-derived xenograft (CDX) models, 1 × 10⁶ AR42J cells (100 μL) were subcutaneously inoculated into the right shoulder of each mouse. […]
Radioactivity levels were measured using a gamma counter, with decay correction applied based on the injection time. The percentage of injected dose per gram of tissue (%ID/g) was calculated for each time point. […]

[1] = 3.7 MBq, Tumor-to-Bladder ratio (T/B)
[2] = 3.7 MBq, Tumor-to-Blood ratio (T/B)
[3] = 3.7 MBq, Tumor-to-Bone ratio (T/B)
[4] = 3.7 MBq, Tumor-to-Brain ratio (T/B)
[5] = 3.7 MBq, Tumor-to-Heart ratio (T/B)
[6] = 3.7 MBq, Tumor-to-Liver ratio (T/B)
[7] = 3.7 MBq, Tumor-to-Muscle ratio (T/M)
[8] = 3.7 MBq, Tumor-to-Stomach ratio (T/B)
[9] = Tumor-to-Large intestine ratio (T/B)
[10] = Tumor-to-Small intestine ratio (T/B)

CCCC[C@@H](C(=O)N[C@@H](CC(=O)O)C(=O)N[C@@H](Cc1cccc2ccccc12)C(N)=O)N(C)C(=O)[C@H](Cc1c[nH]c2ccccc12)NC(=O)CCOCCOCCOCCOCCNC(=O)CC[C@@H](NC(=O)CC[C@H](NC(=O)CN1CCN(CC(=O)O)CCN(CC(=O)O)CCN(CC(=O)O)CC1)C(=O)N[C@H](CCC(=O)NCCOCCOCCOCCOCCC(=O)N[C@@H](Cc1c[nH]c2ccccc12)C(=O)N(C)[C@@H](CCCC)C(=O)N[C@@H](CC(=O)O)C(=O)N[C@@H](Cc1cccc2ccccc12)C(N)=O)C(=O)O)C(=O)O [[177Lu]Lu-DOTA-CCK2R-dimer, metal not drawn] ({DOTA}-E([d(γGlu)-PEG4-Trp-NMeNle-Asp-1Nal-NH2])[d(γGlu)][PEG4]W[NMeNle]D[1Nal]-NH2)
tissue to tissue ratio at 24 h [1]: 35.4 ± 6.48
tissue to tissue ratio at 48 h [1]: 194 ± 91
tissue to tissue ratio at 72 h [1]: 44.7 ± 13.1
tissue to tissue ratio at 96 h [1]: 13.5 ± 4.12
tissue to tissue ratio at 1 h [2]: 2.95 ± 1.5
tissue to tissue ratio at 4 h [2]: 13.3 ± 5.68
tissue to tissue ratio at 24 h [2]: 141 ± 51.3
tissue to tissue ratio at 48 h [2]: 186 ± 14.3
tissue to tissue ratio at 72 h [2]: 768 ± 140
tissue to tissue ratio at 96 h [2]: 226 ± 40.9
tissue to tissue ratio at 1 h [3]: 35.1 ± 13.6
tissue to tissue ratio at 4 h [3]: 53.2 ± 32.6
tissue to tissue ratio at 24 h [3]: 165 ± 45
tissue to tissue ratio at 48 h [3]: 1070 ± 247
tissue to tissue ratio at 72 h [3]: 117 ± 40.1
tissue to tissue ratio at 96 h [3]: 46 ± 9.49
tissue to tissue ratio at 1 h [4]: 141 ± 50
tissue to tissue ratio at 4 h [4]: 470 ± 81.1
tissue to tissue ratio at 24 h [4]: 6080 ± 100
tissue to tissue ratio at 48 h [4]: 1710 ± 151
tissue to tissue ratio at 72 h [4]: 746 ± 85.1
tissue to tissue ratio at 96 h [4]: 189 ± 50.1
tissue to tissue ratio at 1 h [5]: 15.3 ± 5.59
tissue to tissue ratio at 96 h [5]: 105 ± 5.19
tissue to tissue ratio at 1 h [6]: 5.19 ± 2.8
tissue to tissue ratio at 4 h [6]: 4.37 ± 0.9
tissue to tissue ratio at 24 h [6]: 10 ± 0.99
tissue to tissue ratio at 48 h [6]: 7.78 ± 1.96
tissue to tissue ratio at 1 h [7]: 53.3 ± 18.2
tissue to tissue ratio at 4 h [7]: 246 ± 180
tissue to tissue ratio at 24 h [7]: 417 ± 210
tissue to tissue ratio at 48 h [7]: 531 ± 153
tissue to tissue ratio at 72 h [7]: 348 ± 238
tissue to tissue ratio at 96 h [7]: 90.8 ± 32.8
tissue to tissue ratio at 1 h [8]: 4.83 ± 1.46
tissue to tissue ratio at 96 h [8]: 13.4 ± 6.42
tissue to tissue ratio at 1 h (3.7 MBq, 1 h p.i., read-out: Tumor-to-Kidney ratio (T/B)): 2.22 ± 1.01
tissue to tissue ratio at 48 h (3.7 MBq, 48 h p.i., read-out: Tumor-to-Kidney ratio (T/B)): 4.16 ± 3.43
tissue to tissue ratio at 1 h (Tumor-to-Bladder ratio (T/B)): 24.8 ± 11
tissue to tissue ratio at 4 h (Tumor-to-Bladder ratio (T/B)): 40.4 ± 12.1
tissue to tissue ratio at 4 h (Tumor-to-Heart ratio (T/B)): 29.6 ± 12.8
tissue to tissue ratio at 24 h (Tumor-to-Heart ratio (T/B)): 134 ± 59.9
tissue to tissue ratio at 48 h (Tumor-to-Heart ratio (T/B)): 406 ± 29.2
tissue to tissue ratio at 72 h (Tumor-to-Heart ratio (T/B)): 80.5 ± 26.4
tissue to tissue ratio at 1 h [9]: 17.1 ± 5.58
tissue to tissue ratio at 4 h [9]: 24.4 ± 5.51
tissue to tissue ratio at 24 h [9]: 90.7 ± 23.4
tissue to tissue ratio at 48 h [9]: 73.2 ± 14.5
tissue to tissue ratio at 72 h [9]: 98.9 ± 74.4
tissue to tissue ratio at 96 h [9]: 26.3 ± 11
tissue to tissue ratio at 72 h (Tumor-to-Liver ratio (T/B)): 5.53 ± 1.05
tissue to tissue ratio at 96 h (Tumor-to-Liver ratio (T/B)): 2.7 ± 0.63
tissue to tissue ratio at 1 h (Tumor-to-Lung ratio (T/B)): 7.93 ± 3.29
tissue to tissue ratio at 4 h (Tumor-to-Lung ratio (T/B)): 15.9 ± 6.64
tissue to tissue ratio at 24 h (Tumor-to-Lung ratio (T/B)): 331 ± 35
tissue to tissue ratio at 48 h (Tumor-to-Lung ratio (T/B)): 900 ± 88
tissue to tissue ratio at 72 h (Tumor-to-Lung ratio (T/B)): 299 ± 66.5
tissue to tissue ratio at 96 h (Tumor-to-Lung ratio (T/B)): 61.2 ± 12.8
tissue to tissue ratio at 1 h [10]: 14 ± 5.39
tissue to tissue ratio at 4 h [10]: 28.8 ± 10.3
tissue to tissue ratio at 24 h [10]: 229 ± 10
tissue to tissue ratio at 48 h [10]: 112 ± 61
tissue to tissue ratio at 72 h [10]: 187 ± 27.7
tissue to tissue ratio at 96 h [10]: 39.6 ± 12.2
tissue to tissue ratio at 1 h (Tumor-to-Spleen ratio (T/B)): 8.21 ± 4.18
tissue to tissue ratio at 4 h (Tumor-to-Spleen ratio (T/B)): 6.59 ± 0.75
tissue to tissue ratio at 24 h (Tumor-to-Spleen ratio (T/B)): 55 ± 21.1
tissue to tissue ratio at 48 h (Tumor-to-Spleen ratio (T/B)): 124 ± 50
tissue to tissue ratio at 72 h (Tumor-to-Spleen ratio (T/B)): 51.8 ± 19.5
tissue to tissue ratio at 96 h (Tumor-to-Spleen ratio (T/B)): 9.63 ± 3.59
tissue to tissue ratio at 4 h (Tumor-to-Stomach ratio (T/B)): 5.05 ± 1.72
tissue to tissue ratio at 24 h (Tumor-to-Stomach ratio (T/B)): 5.94 ± 1.92
tissue to tissue ratio at 48 h (Tumor-to-Stomach ratio (T/B)): 4.15 ± 0.31
tissue to tissue ratio at 72 h (Tumor-to-Stomach ratio (T/B)): 8.41 ± 1.18
tissue to tissue ratio at 4 h (4 h p.i., read-out: Tumor-to-Kidney ratio (T/B)): 2.19 ± 0.23
tissue to tissue ratio at 24 h (24 h p.i., read-out: Tumor-to-Kidney ratio (T/B)): 1.84 ± 0.56
tissue to tissue ratio at 72 h (72 h p.i., read-out: Tumor-to-Kidney ratio (T/B)): 1.65 ± 0.05
tissue to tissue ratio at 96 h (96 h p.i., read-out: Tumor-to-Kidney ratio (T/B)): 1.37 ± 0.84
tissue uptake at 1 h (Bladder uptake): 0.84 ± 0.31 %ID/g
tissue uptake at 4 h (Bladder uptake): 0.4 ± 0.13 %ID/g
tissue uptake at 24 h (Bladder uptake): 0.18 ± 0.04 %ID/g
